The values that follow come from patent US7326715B2, “4-Phenyl-6-substituted-pyrimidine-2-carbonitrile derivatives” (N.V. Organon, priority 2005, dated 2008).

Counter-ions that a name gives are not always drawn.

The assay deals with T1, recombinant human Cathepsin K (Homo sapiens, UniProt P43235).
T1 sequence (P43235 115-329): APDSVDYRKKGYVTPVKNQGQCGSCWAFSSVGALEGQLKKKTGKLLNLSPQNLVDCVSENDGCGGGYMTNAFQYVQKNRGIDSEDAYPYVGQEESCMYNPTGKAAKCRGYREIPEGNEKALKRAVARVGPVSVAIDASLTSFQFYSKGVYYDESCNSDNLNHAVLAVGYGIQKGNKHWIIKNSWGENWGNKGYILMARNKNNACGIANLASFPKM
As to the kind of experiment: Cathepsin K activity: inhibition of recombinant human Cathepsin K (Z-Phe-Arg-AMC fluorescence). Particulars: substrate Z-Phe-Arg-AMC, pH 5.5, fluorescence at 10 minutes, read-out: pIC50 (negative logarithm of the IC50 concentration) for inhibition of human cathepsin K (converted). Type of assay: biochemical. How it is done:
To a 384 well microtitre plate is added 5 μl of a 100 μM solution of test compound in assay buffer (100 mM sodium acetate pH 5.5, 5 mM EDTA, 5 mM dithiothreitol) with 10% dimethylsulfoxide (DMSO), plus 10 μl of 100 μM solution of the substratre Z-Phe-Arg-AMC (Bachem; 7-amido-coumarine derivative of the dipeptide N-benzyloxycarbonyl-Phe-Arg-OH) in assay buffer and 25 μl of assay buffer. 10 μl of a 1 mg/l solution of activated recombinant human cathepsin K, in assay buffer, is then added to the well, yielding a final inhibitor concentration of 10 μM. Enzyme activity is determined by measuring the fluorescence of the liberated aminomethylcoumarin at […] using 390 nm excitation, at 10 minutes. Percentage enzyme activity is calculated by comparison of this activity to that of a solution containing no inhibitor. Compounds are subsequently subjected to a dose response curve analysis in order to determine IC50 values for active compounds (where IC50 is the concentration of test compound causing 50% inhibition of the enzymatic activity).
Compounds of the invention typically have a pIC50 (negative logarithm of the IC50 concentration) for inhibition of human cathepsin K of more than 6, preferably more than 7 and most preferably a pIC50 of more than 8, such as for the compounds of Examples 1, 2a, 2b, 3, 5, 6, 8, 12, 14, 13, 16k, 16n, 16o, 17, 22a, 22b, 22c

Turning to `N#Cc1nc(-c2cccc(C(F)(F)F)c2)cc(N2CCNCC2)n1` [Example 1, 4-(Piperazin-1-y)l-6-(3-trifluoromethylphenyl)-pyrimidine-2-carbonitrile], the IC50 is under 10 nM. With `COCCN1CCN(c2cc(-c3cccc(C(F)(F)F)c3)nc(C#N)n2)CC1` [Example 2a, 4-[4-(2-Methoxy-ethyl)-piperazin-1-yl]-6-(3-trifluoromethy-phenyl)-pyrimidine-2-carbonitrile], the IC50 is under 10 nM. The same measure for `N#Cc1nc(-c2cccc(C(F)(F)F)c2)cc(N2CCN(CC(N)=O)CC2)n1` [Example 2b, 4-(4-carbamoylmethyl-piperazin-1-yl)-6-(3-trifluoromethyl-phenyl)-pyrimidine-2-carbonitrile]: under 10 nM; for `N#Cc1nc(-c2cccc(C(F)(F)F)c2)cc(N2CCN(CCC(=O)O)CC2)n1` [Example 5, 4-[4-(2-carboxy-ethyl)-piperazin-1-yl]-6-(3-trifluoromethyl-phenyl)-pyrimidine-2-carbonitrile trifluoroacetic acid salt]: under 10 nM; for `N#Cc1nc(-c2cccc(C(F)(F)F)c2)cc(N2CCN(CC3CC3)CC2)n1` [Example 6, 4-(4-Cyclopropylmethyl-piperazin-1-yl)-6-(trifluoromethyl-phenyl)-pyrimidine-2-carbonitrile trifluoroacetic acid salt]: under 10 nM.

Consider `N#Cc1nc(-c2cccc(C(F)(F)F)c2)cc(N2CCN(C3CC3)CC2)n1` [Example 8, 4-(4-Cyclopropyl-piperazin-1-yl)-6-(trifluoromethyl-phenyl)-pyrimidine-2-carbonitrile hydrochloric acid salt], for which the IC50 is under 10 nM. In the case of `CN1CCN(c2cc(-c3cccc(C(F)(F)F)c3)nc(C#N)n2)CC1(C)C` [Example 12, 4-(3,3,4-Trimethyl-piperazin-1-yl)-6-(3-trifluoromethyl-phenyl)-pyrimidine-2-carbonitrile], the IC50 was under 10 nM. The same measure for `N#Cc1nc(-c2cccc(C(F)(F)F)c2)cc(N2CCCNCC2)n1` [Example 13, 4-[1,4]Diazepan-1-yl-6-(3-trifluoromethylphenyl)-pyrimidine-2-carbonitrile]: under 10 nM.

Take `CN1CCCN(c2cc(-c3cccc(C(F)(F)F)c3)nc(C#N)n2)CC1` [Example 14, 4-(4-Methyl-[1,4]diazepan-1-yl)-6-(3-trifluoromethyl-phenyl)-pyrimidine-2-carbonitrile]: the IC50 was under 10 nM.

Regarding `CN1CCC(N(C)c2cc(-c3cccc(C(F)(F)F)c3)nc(C#N)n2)CC1` [Example 16k, 4-[Methyl-(1-methyl-piperidin-4-yl)-amino]-6-(3-trifluoromethyl-phenyl)-pyrimidine-2-carbonitrile trifluoroacetic acid salt], the IC50 was under 10 nM. In the case of `N#Cc1nc(NCc2nnn[nH]2)cc(-c2cccc(C(F)(F)F)c2)n1` [Example 16n, 4-[(1H-Tetrazol-5-ylmethyl)-amino]-6-(3-trifluoromethyl-phenyl)-pyrimidine-2-carbonitrile] it was under 10 nM; in that of `N#Cc1nc(NCC(=O)O)cc(-c2cccc(C(F)(F)F)c2)n1` [Example 16o, 4-(Carboxymethyl-amino)-6-(3-trifluoromethyl-phenyl)-pyrimidine-2-carbonitrile], under 10 nM. Consider `COc1ccc(-c2cc(N3CCNCC3)nc(C#N)n2)cc1C(F)(F)F` [Example 17, 4-(4-Methoxy-3-trifluoromethyl-phenyl)-6-piperazin-1-yl-pyrimidine-2-carbonitrile], for which the IC50 is under 10 nM. Turning to `N#Cc1nc(OCCN2CCCCC2)cc(-c2cccc(C(F)(F)F)c2)n1` [Example 22a, 4-(2-Piperidin-1-yl-ethoxy)-6-(3-trifluoromethyl-phenyl)-pyrimidine-2-carbonitrile], the IC50 was under 10 nM.

Regarding `N#Cc1nc(OCCN2CCOCC2)cc(-c2cccc(C(F)(F)F)c2)n1` [Example 22b, 4-(2-Morpholin-4-yl-ethoxy)-6-(3-trifluoromethyl-phenyl)-pyrimidine-2-carbonitrile], the IC50 was under 10 nM. Consider `CCN(CC)CCOc1cc(-c2cccc(C(F)(F)F)c2)nc(C#N)n1` [Example 22c, 4-(2-Diethylamino-ethoxy)-6-(3-trifluoromethyl-phenyl)-pyrimidine-2-carbonitrile], for which the IC50 is under 10 nM.
